Three compounds from paper PMC4474691, “Leukemia-Associated Mutations in Nucleophosmin Alter Recognition by CRM1: Molecular Basis of Aberrant Transport” (PLoS ONE, 2015) can be followed below.

*1 amine or outer side, *2 acyl side, *3 side chain or, on linkers, in order; H or OH if unused. Where a SMILES comes first, the peptide text is derived from it. Bridges are numbered along the chain shown (N, C = ends). Roman numbers before positions name the chains, in order. [ ]: non-standard residue; d: D form. Actinocin(9to1) = Cc1c2oc3c(C)ccc(C(=O)[*:1])c3nc-2c(C(=O)[*:2])c(N)c1=O; NMeV = CN[C@H](C(=O)O)C(C)C; Sar = CNCC(=O)O

The test system of one assay is HeLa cells. In words: In vivo nuclear export assay, Rev(1.4)-GFP. In kind it is cell-based. The settings on record: Rev(1.4)-NPMcNES-GFP in HeLa cells, actinomycin D, >200 cells per sample. The text has this: The clone of Myc3 tagged human NPM in pCDNA3.1 for eukaryotic expression was kindly provided by Dr. Yanping Zhang (University of Texas). From this clone, we used PCR to generate the AML-associated mutants A and E [27], by incorporating the mutations in the 3´oligonucleotide. The three NPM variants (wild type, A and E) were subcloned as YFP-NPM fusions into pEYFP-C1. The plasmid encoding YFP-CRM1 has been previously described, and pEYFP-C1 was used as its corresponding negative control. As a positive control in cell localization assays, a previously described plasmid encoding Flag-tagged Survivin fused to a heterologous NLS (“SurvNLS”) was used. To test the export activity of a novel putative NES in the C-terminal domain of wild type NPM, a DNA fragment encoding residues 264–282 was cloned into the plasmid Rev (1.4)-GFP (a gift of Dr. Beric Henderson, University of Sydney), as previously described.
The export activity of a novel putative NES in the C-terminal domain of NPM was tested using an established in vivo nuclear export assay in HeLa cells (see Supporting Information for further experimental details).
Supplementary file pone.0130610.s001.tif: S1 Fig A novel candidate NES (cNES) in NPM is not active in a nuclear export assay. […] Fluorescence microscopy images in panel B show the localization of the different proteins. […] More than 200 cells were counted per sample. […]

The target of another assay is T1, CRM1^HA (Mus musculus, UniProt Q6P5F9, L431A/V430A/V432A).
T1 construct: His-ZZ (cleaved yes); made in house; host or cells: Escherichia coli BL21-CodonPlus (DE3)
The experiment in a line: Size exclusion chromatography of NPM / CRM1^HA complex formation. In kind it is binding. The protocol:
Chromatography-based binding experiments
[…] Then 100 μL were loaded onto a Superdex 200 10/30 column (GE Healthcare), equilibrated in buffer 20 mM Tris/HCl, pH 7.4, 100 mM NaCl, 5 mM DTT, 2 mM MgCl2. Runs were performed at 15°C and a flow rate of 0.2 mL / min. The eluted fractions were analyzed by SDS-PAGE. TFP-NES/CRM1^HA complex formation was also tested by Ni-NTA chromatography (see Supporting Information).
Fig 3 Native-like properties of CRM1^HA “high affinity” mutant and formation of complexes between this CRM1 variant and AML-related NPM mutants. (A) Circular dichroism thermal denaturation profiles of wild type CRM1 and CRM1^HA, followed by ellipticity at 222 nm as a function of temperature. […] When evaluating the relative amounts of the complex and free NPM, one should take into account that absorbance at 280 nm is lower for the mutants (especially NPMmutA) than for wild type NPM, since wild type NPM contains two Trp residues per subunit, NPMmutE one, and NPMmutA none. […] They are detected in the fractions containing the complex probably due to formation of mixed oligomers with the full length species and/or incomplete resolution from free NPM. […]

Another assay deals with Myc-NPM in HEK293T cells. The experiment in a line: Localization of Myc-NPM in HEK293T cells. The settings on record: YFP-CRM1 co-expression and ActD (5 μg/mL, 3 h), >200 cells counted. In kind it is cell-based, human. The procedure:
(§1) Cell culture, transfection, treatment and imaging
(§2) Human embryonic kidney 293T (HEK293T) and HeLa cells (ECACC) were grown in Dulbecco’s modified Eagle’s medium, supplemented with 10% fetal bovine serum, 100 units/ml penicillin and 100 μg/ml streptomycin (all from Invitrogen). The cells were seeded onto sterile glass coverslips in 12-well trays 24 h before transfection. Transfections were carried out with XtremeGENE 9 (Roche) following the manufacturer’s protocol. Treatment of cells with the different drugs was done at the indicated final concentrations and time periods: Actinomycin D (ActD, Sigma) at 5 μg / mL for 3 h, and hydroxyurea (HU, Sigma) at 4 mM for 24 h.
Cells were fixed, either 20 or 42 h after transfection, with 3.7% formaldehyde in PBS for 30 min, then treated with 0.2% Triton X-100 in PBS for 10 min, for membrane permeabilization and incubated for 1 h in blocking solution (3% BSA in PBS). In YFP-CRM1 overexpression experiments, endogenous NPM was detected with anti-B23 (Santa Cruz Biotechnology FC82291, dilution 1:800), Myc3-NPM with anti-Myc (Cell Signalling 2276, dilution 1:2000) and Flag-SurvNLS with anti-Flag (Sigma F1704, dilution 1:300). Primary antibodies were diluted in blocking solution. In all cases, the secondary antibody was Alexa Fluor 594 anti-mouse (Invitrogen A11005, dilution 1:400). […] Slides were examined using a Zeiss Axioskop fluorescence microscope. […]

In assay [1] the test system is endogenous NPM in HEK293T cells. The experiment in a line: Localization of endogenous NPM in HEK293T cells. Format: cell-based, human. The procedure:
as §1, §2
Cells were fixed, either 20 or 42 h after transfection, with 3.7% formaldehyde in PBS for 30 min, then treated with 0.2% Triton X-100 in PBS for 10 min, for membrane permeabilization and incubated for 1 h in blocking solution (3% BSA in PBS). In YFP-CRM1 overexpression experiments, endogenous NPM was detected with anti-B23 (Santa Cruz Biotechnology FC82291, dilution 1:800), Myc3-NPM with anti-Myc (Cell Signalling 2276, dilution 1:2000) and Flag-SurvNLS with anti-Flag (Sigma F1704, dilution 1:300). Primary antibodies were diluted in blocking solution. In all cases, the secondary antibody was Alexa Fluor 594 anti-mouse (Invitrogen A11005, dilution 1:400). Washing between the different steps were carried out with PBS. […] Slides were examined using a Zeiss Axioskop fluorescence microscope. For quantification, at least 200 cells were “blind counted” and classified as having nuclear (or nucleolar), nuclear/cytoplasmic or cytoplasmic localization of NPM (or the Flag-SurvNLS control). […]
Fig 2 Localization of endogenous and ectopically expressed NPM and effect of treatment with actinomycin D (ActD) and CRM1 overexpression in HEK293T cells. […] Green denotes YFP (Y) or YFP-CRM1 (YC) fluorescence; red, immunostaining of endogenous NPM; and blue, DAPI fluorescence. […] More than 200 cells were “blind” counted. […] (D) Quantification of cytoplasmic (C) or nuclear and cytoplasmic (N/C) localization of overexpressed Flag-SurvNLS and Myc-NPM. […]

T1 sequence (Q6P5F9 1-1062 V430A/L431A/V432A limits assumed): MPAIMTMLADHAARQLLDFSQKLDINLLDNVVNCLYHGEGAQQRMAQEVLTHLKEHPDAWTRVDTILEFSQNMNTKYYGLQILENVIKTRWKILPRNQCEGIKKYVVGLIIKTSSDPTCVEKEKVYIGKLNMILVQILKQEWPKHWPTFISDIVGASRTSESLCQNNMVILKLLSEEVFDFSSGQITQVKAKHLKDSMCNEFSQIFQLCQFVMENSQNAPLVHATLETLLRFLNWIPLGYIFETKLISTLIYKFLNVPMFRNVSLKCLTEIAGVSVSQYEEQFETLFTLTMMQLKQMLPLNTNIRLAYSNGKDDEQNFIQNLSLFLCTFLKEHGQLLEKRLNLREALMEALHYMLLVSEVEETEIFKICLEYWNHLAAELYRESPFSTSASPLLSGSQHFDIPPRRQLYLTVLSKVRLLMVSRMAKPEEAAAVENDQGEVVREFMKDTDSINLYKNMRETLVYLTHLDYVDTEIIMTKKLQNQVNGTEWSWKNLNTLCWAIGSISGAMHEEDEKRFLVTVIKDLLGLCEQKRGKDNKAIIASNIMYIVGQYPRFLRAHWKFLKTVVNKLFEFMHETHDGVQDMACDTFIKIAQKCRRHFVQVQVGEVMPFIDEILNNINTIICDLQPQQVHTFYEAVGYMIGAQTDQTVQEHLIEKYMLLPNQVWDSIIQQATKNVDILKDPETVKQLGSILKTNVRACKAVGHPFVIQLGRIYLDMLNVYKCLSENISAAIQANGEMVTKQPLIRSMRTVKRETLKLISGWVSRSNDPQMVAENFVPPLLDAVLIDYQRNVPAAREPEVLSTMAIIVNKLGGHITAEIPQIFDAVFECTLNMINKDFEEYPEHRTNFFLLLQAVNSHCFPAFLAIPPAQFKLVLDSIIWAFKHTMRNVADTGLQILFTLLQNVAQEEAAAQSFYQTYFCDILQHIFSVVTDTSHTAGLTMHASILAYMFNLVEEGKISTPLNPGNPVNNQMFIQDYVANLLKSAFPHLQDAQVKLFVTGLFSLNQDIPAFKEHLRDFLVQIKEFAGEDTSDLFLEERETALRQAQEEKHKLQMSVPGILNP

Turning to “VEAKFINYVKNCFRMTDQE [NPM cNES, candidate NES in C-terminal domain of NPM, tested as Rev(1.4)-GFP fusion]”, the results for the nuclear export activity entry with HeLa cells and with HeLa cells (listed as 268-FINYVKNCFRM-278) were “not functional as a nuclear export signal” and “inactive”, respectively.
Consider “wild type NPM: nucleophosmin, pentameric nucleolar protein”, for which the “complex formation with CRM1^HA” value is “did not result in any complex stable enough as to be detected by SEC” in the assay with CRM1^HA (SEC Superdex 200, 20 μM (pentamer) NPM + 40 μM CRM1^HA, 30 min room temperature, run at 15°C, 20 mM Tris/HCl pH 7.4, 100 mM NaCl, mutant preparations partly C-terminally degraded) and “failed to produce any detectable complex” with CRM1^HA (SEC, 40 μM NPM + 140 μM CRM1^HA (data not shown)).
With `Cc1c2oc3c(C)ccc(C(=O)N[C@@H]4C(=O)N[C@H](C(C)C)C(=O)N5CCC[C@H]5C(=O)N(C)CC(=O)N(C)[C@@H](C(C)C)C(=O)O[C@@H]4C)c3nc-2c(C(=O)N[C@@H]2C(=O)N[C@H](C(C)C)C(=O)N3CCC[C@H]3C(=O)N(C)CC(=O)N(C)[C@@H](C(C)C)C(=O)O[C@@H]2C)c(N)c1=O` [ActD, actinomycin D] (I: T[dV]P[Sar][NMeV] / II: T[dV]P[Sar][NMeV]; ester I:1-I:C, II:1-II:C; linker I:N-II:N via Actinocin(9to1)), the “cells with nuclear/cytoplasmic localization of Myc-NPM” value in the assay on Myc-NPM in HEK293T cells worked out at 33%. For the same compound, the “cytoplasmic localization of endogenous NPM” value in assay [1] (HEK293T expressing YFP-CRM1, ActD 5 μg/mL 3 h where ActD) is recorded as “a further increase was observed”. Moreover, in assay [1] (YFP-transfected HEK293T, ActD 5 μg/mL 3 h, no CRM1 overexpression), the “nuclear/cytoplasmic localization of endogenous NPM” value was “does not affect, however, the amount of cells displaying nuclear/cytoplasmic localization of NPM”.
